How the values were obtained:
Relative quantum yields = format: physicochemical; conditions: relative to fluorescein; phosphate buffer pH=7.0, excited at 490 nm
Procedure: Relative Quantum Yields. To determine quantum yields relative to fluorescein, a stock solution of compound 4 was prepared in DMSO (1 mM) and diluted in phosphate buffer (pH=7.0) to OD490=0.09. The samples were excited at 490 nm and the integrated emission spectra were compared. The quantum yields of all compounds were referenced to fluorescein in 0.1 N NaOH (Φ=0.95). The quantum yield for compound 4 was calculated as 0.00132

[1] = test system: Human bronchial epithelial cells (BEAS-2B); assay: Live-cell imaging of human bronchial epithelial cells; format: cell-based; conditions: human bronchial epithelial cells
Procedure: Human bronchial epithelial cells (BEAS-2B) (American Type Culture Collectin) were grown in LHC-9 medium (Invitrogen) on glass-bottomed Petri dishes (MatTek) precoated with 0.01 mg ml^−1 of human fibronectin (Invitrogen), 0.029 mg ml^−1 Vitrogen 100 (Cohesion) and 0.01 mg ml^−1 bovine serum albumin (Invitrogen) in LHC-9 medium. Immediately prior to imaging, cells were rinsed with Hank's balanced salt solution, which contained calcium and magnesium, and placed inside a temperature-controlled, airtight environmental chamber and maintained at 37° C. and 5% CO2. Images were obtained using a Nikon TE2000E-PFS (Perfect focus system) microscope equipped with a […] oil-immersion objective (Nikon, CFI PlanFluor, NA 1.3) and a fluorescien isothiocyanate longpass filter set (Chroma), a Q-Imaging SRV CCD camera (Q-imaging) and MetaMorph software (Molecular Devices). The motorized XYZ stage used was made by ASA (Eugege). Baseline images were collected before the addition of compound 8 and time-lapsed images obtained at 30 second intervals after the addition of compound 8 (250 nM). Once stage baseline had been achieved, multiple washes were carried out and the media replaced. The cells were then exposed to ozone (˜2.1 ppm) and monitored every 30 seconds for 15 minutes. Ozone was generated from medical grade oxygen (Valley Gas) via a model V1-0 ultraviolet ozonator (OREC) and analyzed with a Dasibi (Glendale) direct-reading instrument. Ozone concentrations were maintained by adjusting both the intensity of the ultraviolet light and the flow rate of oxygen. For each experiment, images were collected from six stages, with a minimum of five cells per position (a minimum of 30 cells per […]).
In another embodiment of the invention, human bronchial epitelial cells were incubated with compound 4 to determine ozone's role in cell biology. […] Based on studies why compound 4 and structurally related compounds are not fluorescent, it is believed that the hydroxymethyl group 4 may have been oxidized to give a more electron-withdrawing group, possible a carboxyl or aldehyde group, and so emit a strong fluorescence signal. To circumvent such an oxidation event, compound 8 was prepared specific for ozone. […] Once a steady baseline signal had been established and maintained for five minutes, ozone gas was generated within the airtight environmental chamber that housed the cell-culture dishes, and fluorescent signals were monitored using live-cell microscopy for approximately 15 minutes.
FIGS. 16A-H are photographs of live-cell imaging of human bronchial epithelial cells in the presence of ozone using compound 8. The left-hand panels (FIGS. A-E) are pseudocolour images that indicate the changes in emission intensity over time, and the right-hand panels show differential interference contrast images of the bronchial epithelial cells. FIG. 16A is before the addition of compound 8 (0 seconds). FIG. 16B illustrates the cell at 107 seconds that is a steady state intensity reached with compound 8 at 250 nM. FIG. 16C illustrates the cell at 326 seconds when ozone flow is started. FIG. 16D illustrates the cell at 536 seconds with the emission intensity increasing. FIG. 16E illustrates the cell at 675 seconds when emission maximum is reached. FIG. 16F illustrates the cell at 820 seconds when the cell starts to die. FIG. 16G illustrates the cell at 969 seconds where the cell emission continues to fall. FIG. 16H illustrates the cell at 1148 seconds when the ozone flow is stopped.

[2] = Time-dependence of the conversion of compound 4 to compound 7; conditions: 37° C.
Procedure: Time-dependence of the conversion of compound 4 to compound 7 in buffer. Solution A ([compound 4]final=12.5 μM) was added to a mixture of MeOH/pH 7 buffer ([PO4^3−]=5 mM) (5:95) (4.0 mL), and the sample was exposed to ozone (˜5 μM) at 24° C. followed by incubation at 37° C. Aliquots of the reaction mixture were taken out at various times for fluorescence measurement (FIG. S6). The conversion of compound 4 to compound 7 requires 60 minutes for completion (presumably the β-elimination is the rate determining step because the formation and fragmentation of molozonides are extremely rapid), but 10-15 minutes is sufficient to observe fluorescence signal.
FIG. 7 illustrates time-dependence of the conversion of compound 4 to compound 7 in cell culture media at 37° C. […]. Solution A ([compound 4]final=12.5 μM) was added to a mixture of 10% FBS in RPMI-1640 cell culture media/pH 7 buffer ([PO4^3−]=5 mM) (1:3) (4.0 mL), and the sample was exposed to ozone (˜5 μM) at 24° C. followed by incubation at 37° C. Aliquots of the reaction mixture were taken out at various times for fluorescence measurement (FIG. 8). The conversion of compound 4 to compound 7 requires 15-20 minutes for completion, but <5 minutes is sufficient to observe fluorescence signal. Although the exact mechanism of this enhancement is not known, catalysis of a β-elimination by action of bovine serum albumin has been previously reported.

[3] = 10% FBS in RPMI-1640 cell culture media/pH 7 buffer (1:3)
[4] = MeOH/pH 7 buffer (5:95), ozone ~5 μM

**Q.** For `C=CCCOc1cc2oc3cc(=O)c(Cl)cc-3c(-c3ccccc3CO)c2cc1Cl` [compound 4], which quantum yield (Relative quantum yields) is on record?
**A.** 0.00132

**Q.** What about the cell permeability [1] of the same compound?
**A.** cell permeable

**Q.** What about the “fluorescence inside the cells in the absence of external ozone” value ([1]; no external ozone) of the same compound?
**A.** converted to a fluorescent compound inside the cells

**Q.** What about the “time required for completion of conversion of compound 4 to compound 7” value [2, 3] of the same compound?
**A.** 15 to 20 min

**Q.** What about the “time sufficient to observe fluorescence signal” value [2, 3] of the same compound?
**A.** < 5 min

**Q.** And the “time required for completion of conversion of compound 4 to compound 7” value [2, 4]?
**A.** 60 min

**Q.** And the “time sufficient to observe fluorescence signal” value [2, 4]?
**A.** 10 to 15 min

From patent publication US8361802B2, “Fluorescent ozone sensor” (University of Pittsburgh—Of the Commonwealth System of …, priority 2009, dated 2013)
